According to patent US5521155A, “Amides of teicoplanin compounds” (Gruppo Lepetit S.p.A, priority 1985, dated 1996):
Converted amounts (≈) assume the structure as drawn.

Assays:
[1] = Isoelectric point (pI) by isoelectrofocusing with bioautography detection; assay type: physicochemical; details: IEF technique, polyacrylamide gel
Excerpt: The isoelectrofocusing (IEF) technique coupled with bioautography detection has been used for the determination of the pI of representative compounds of the invention using the following materials: AMPHOLINE carrier ampholytes (40% w/v) were purchased from LKB Produketer AB, Bromma, Sweden. Acrylamide, N,N'-methylenbisacrylamide (BIS), N,N,N',N'-tetramethylethylenediamine (TEMED) and ammonium persulfate were from Bio Rad Laboratorie, Richmond, Calif., USA. Glycerol and Antibiotic agar N. 1 (Grove and Randall medium N. 1) were from E. Merck Darmstadt FRG. GEL FIX polyester sheets were purchased from Serva Feinbiochemica Heidelberg. Phenolindo (2,6-dichlorophenol) came from BDH Chemicals Ltd. Poole, England.
IEF was made on gel slab using a LKB MULITPHOR 2117 cell and a Bio-Rad Power Supply Model 1420A. Slabs of 24.5×11.5 cm and 1 mm thickness were prepared on a sheet of GEL FIX. Polyacrylamide gels with a concentration of 8% T and with a cross-linkage of 4% C (30% T stock solution was prepared by dissolving 28.8 g of acrylamide and 1.2 g of bis-acrylamide in 100 ml distilled water), glycerol, 3.5% v/v, 2% AMPHOLINE, 0.05% ammonium persulphate as catalyst and 0.05% TEMED as accelerator. The carrier ampholite composition for 35 ml gelling solution was as follows:
The electrode solutions, as recommended by LKB for the respective pH range, were:
The gel was cooled to 4° C. with the aid of a LKB 2209 refrigerated constant temperature circulator. After prefocusing for 30 min. at 5 W, the samples (20 μl containing 0.2 to 2.5 μg of antibiotic) were loaded into the slot at the cathodic side. Electrofocusing was performed using 10 W constant power and was completed after 3-31/2 hours with a final potential of 1400 V.
The pH values were determined by dividing a portion of the gel into 1 cm sections, and eluting the individual pieces at room temperature with 1 ml of 10 mM KCl prior to pH readings.
The isoelectric point of each antibiotic was determined by interpolation on a curve obtained by plotting pH values versus the distance from the anode.
Polyacrylamide gel was placed on a 3 mm layer of agar medium N. 1 inoculated with 1% of Bacillus subtilis ATCC 6633 spore (0.5 OD at 600 nm). After 10 min the gel was removed and the plate was incubated overnight at 37° C. and examined for inhibition zones. The contrast between the area of lysis and that of bacterial growth was enhanced by use of Phenolindo(2,6-dichlorophenol) 1% w/v (oxidation-reduction indicator).

E. coli SKF 12140 = assay: In vitro antibacterial activity, standard agar-dilution test (MIC); assay type: cell-based; details: inoculum about 10^4 CFU/ml, 18-24 h at 37° C.
Description: (§1) The culture medium ISOSENSITEST BROTH (Oxoid) and the colture medium TODD-[…] BROTH (Difco) are used for growing staphylococci and streptococci, respectively. Broth cultures are diluted so that the final inoculum is about 10^4 colony forming units/ml (CFU/ml).

[2] = tested on: Proteus vulgaris X 19H ATCC 881; assay: as above; assay type: cell-based; details: inoculum about 10^4 CFU/ml, 18-24 h at 37° C.
Description: as §1

[3] = tested on: Pseudomonas aeruginosa ATCC 10145; assay: as above; assay type: cell-based; details: inoculum about 10^4 CFU/ml, 18-24 h at 37° C.
Description: as §1

S. aureus ATCC 6538 = assay: as above; assay type: cell-based; details: inoculum about 10^4 CFU/ml, 18-24 h at 37° C.
Description: as §1

S. aureus Tour = assay: as above; assay type: cell-based; details: inoculum about 10^4 CFU/ml, 18-24 h at 37° C.
Description: as §1

[4] = tested on: S. epidermidis ATCC 12228; assay: as above; assay type: cell-based; details: inoculum about 10^4 CFU/ml, 18-24 h at 37° C.
Description: as §1

S. faecalis ATCC 7080 = assay: as above; assay type: cell-based; details: inoculum about 10^4 CFU/ml, 18-24 h at 37° C.
Description: as §1

S. pneumoniae UC 41 = assay: as above; assay type: cell-based; details: inoculum about 10^4 CFU/ml, 18-24 h at 37° C.
Description: as §1

S. pyogenes C 203 = assay: as above; assay type: cell-based; details: inoculum about 10^4 CFU/ml, 18-24 h at 37° C.
Description: as §1

S. pyogenes L 49 = assay: In vivo test in mice experimentally infected with S. pyogenes L 49 (ED50); details: mice infected with S. pyogenes L 49; for ED50, route of administration os.: oral
Acid-base titration (pK) = assay type: physicochemical; details: for pK1 / pK2: acid-base titration in METHYLCELLOSOLVE/H2O 4:1 (v/v), 0.01N KOH, salt form per Table IV
Description: The following table (Table IV) reports the acid-base titration data of some representative compounds of the invention. The assays were carried out in METHYLCELLOSOLVE/H2 O, 4:1(v/v). A sample is dissolved in METHYLCELLOSOLVE/H2 O, 4:1(v/v) (10 umole in about 20 ml) and then 0.01N HCl (2 ml) is added and the mixture is titrated with 0.01N KOH in the same solvent mixture.

| Structure (SMILES) | Isoelectric point (pI) [1] | MIC E. coli SKF 12140 (E. coli SKF 12140) [µg/mL] | MIC Proteus vulgaris X 19H ATCC 881 [2] [µg/mL] | MIC Pseudomonas aeruginosa ATCC 10145 [3] [µg/mL] | MIC S. aureus ATCC 6538 (S. aureus ATCC 6538) [µg/mL] | MIC S. aureus Tour (S. aureus Tour) [µg/mL] | MIC S. epidermidis ATCC 12228 [4] [µg/mL] | MIC S. faecalis ATCC 7080 (S. faecalis ATCC 7080) [µg/mL] | MIC S. pneumoniae UC 41 (S. pneumoniae UC 41) [µg/mL] | MIC S. pyogenes C 203 (S. pyogenes C 203) [µg/mL] | ED50, route of administration os. (S. pyogenes L 49) [mg/kg] | ED50, route of administration s.c (S. pyogenes L 49) [mg/kg] | pK1 (Acid-base titration (pK)) | pK2 (Acid-base titration (pK)) | pK3 (value between brackets) (Acid-base titration (pK); between brackets: due to titration of the carboxylic function of the salifying acid) |
| --- | --- | --- | --- | --- | --- | --- | --- | --- | --- | --- | --- | --- | --- | --- | --- |
| CCOC(=O)CNC(=O)C1NC(=O)C2NC(=O)C(NC(=O)C3NC(=O)C4NC(=O)C(Cc5ccc(c(Cl)c5)Oc5cc3cc(c5O)Oc3ccc(cc3Cl)C2OC2OC(CO)C(O)C(O)C2NC(C)=O)NC(=O)C(N)c2ccc(O)c(c2)Oc2cc(O)cc4c2)c2ccc(O)c(c2)-c2c(O)cc(O)cc21 (centres unmarked) [Compound 16] | 7.8 | 128 (≈ 86.1 µM) | > 128 | > 128 | 0.5 (≈ 0.336 µM) | 1 (≈ 0.672 µM) | 0.12 (≈ 0.0807 µM) | 1 (≈ 0.672 µM) | 1 (≈ 0.672 µM) | 0.25 (≈ 0.168 µM) | > 300 | 5 | – | – | – |
| CN(C)CCCNC(=O)C1NC(=O)C2NC(=O)C(NC(=O)C3NC(=O)C4NC(=O)C(Cc5ccc(c(Cl)c5)Oc5cc3cc(c5O)Oc3ccc(cc3Cl)C2O)NC(=O)C(N)c2ccc(O)c(c2)Oc2cc(O)cc4c2)c2ccc(O)c(c2)-c2c(O)cc(O)cc21 (centres unmarked) [Compound 18] | 8.9 | 8 (≈ 6.23 µM) | 16 (≈ 12.5 µM) | 32 (≈ 24.9 µM) | 0.06 (≈ 0.0468 µM) | 0.12 (≈ 0.0935 µM) | 0.016 (≈ 0.0125 µM) | 0.12 (≈ 0.0935 µM) | 0.12 (≈ 0.0935 µM) | 0.06 (≈ 0.0468 µM) | 140 | 0.31 | – | – | – |
| CCN(CC)CCCNC(=O)C1NC(=O)C2NC(=O)C(NC(=O)C3NC(=O)C4NC(=O)C(Cc5ccc(c(Cl)c5)Oc5cc3cc(c5O)Oc3ccc(cc3Cl)C2O)NC(=O)C(N)c2ccc(O)c(c2)Oc2cc(O)cc4c2)c2ccc(O)c(c2)-c2c(O)cc(O)cc21 (centres unmarked) [Compound 19] | 8.7 | 8 (≈ 6.1 µM) | 32 (≈ 24.4 µM) | 32 (≈ 24.4 µM) | 0.12 (≈ 0.0915 µM) | 0.12 (≈ 0.0915 µM) | 0.032 (≈ 0.0244 µM) | 0.12 (≈ 0.0915 µM) | 0.12 (≈ 0.0915 µM) | 0.06 (≈ 0.0458 µM) | > 300 | 0.18 | 6.30 | 8.0 | – |
| CCCCN(CCCC)CCCNC(=O)C1NC(=O)C2NC(=O)C(NC(=O)C3NC(=O)C4NC(=O)C(Cc5ccc(c(Cl)c5)Oc5cc3cc(c5O)Oc3ccc(cc3Cl)C2O)NC(=O)C(N)c2ccc(O)c(c2)Oc2cc(O)cc4c2)c2ccc(O)c(c2)-c2c(O)cc(O)cc21 (centres unmarked) [Compound 20] | 8.7 | 8 (≈ 5.85 µM) | 32 (≈ 23.4 µM) | 64 (≈ 46.8 µM) | 0.6 (≈ 0.439 µM) | 0.25 (≈ 0.183 µM) | 0.063 (≈ 0.0461 µM) | 0.25 (≈ 0.183 µM) | 0.12 (≈ 0.0878 µM) | 0.06 (≈ 0.0439 µM) | > 300 | 0.72 | 6.1 | 8.3 | – |
| NC1C(=O)NC2Cc3ccc(c(Cl)c3)Oc3cc4cc(c3O)Oc3ccc(cc3Cl)C(O)C3NC(=O)C(NC(=O)C4NC(=O)C(NC2=O)c2cc(O)cc(c2)Oc2cc1ccc2O)c1ccc(O)c(c1)-c1c(O)cc(O)cc1C(C(=O)NCCN1CCOCC1)NC3=O (centres unmarked) [Compound 21] | 7.9 | 16 (≈ 12.2 µM) | 128 (≈ 97.6 µM) | 64 (≈ 48.8 µM) | 0.06 (≈ 0.0458 µM) | 0.12 (≈ 0.0915 µM) | 0.016 (≈ 0.0122 µM) | 0.12 (≈ 0.0915 µM) | 0.12 (≈ 0.0915 µM) | 0.12 (≈ 0.0915 µM) | > 300 | 2.2 | 5.01 | 6.8 | – |
| CN1CCN(C(=O)C2NC(=O)C3NC(=O)C(NC(=O)C4NC(=O)C5NC(=O)C(Cc6ccc(c(Cl)c6)Oc6cc4cc(c6O)Oc4ccc(cc4Cl)C3O)NC(=O)C(N)c3ccc(O)c(c3)Oc3cc(O)cc5c3)c3ccc(O)c(c3)-c3c(O)cc(O)cc32)CC1 (centres unmarked) [Compound 23] | 8.0 | 16 (≈ 12.5 µM) | 64 (≈ 50 µM) | 32 (≈ 25 µM) | 0.06 (≈ 0.0468 µM) | 0.12 (≈ 0.0937 µM) | 0.032 (≈ 0.025 µM) | 0.12 (≈ 0.0937 µM) | 0.12 (≈ 0.0937 µM) | 0.12 (≈ 0.0937 µM) | > 300 | 0.95 | 5.6 | 6.8 | – |
| NC1C(=O)NC2Cc3ccc(c(Cl)c3)Oc3cc4cc(c3O)Oc3ccc(cc3Cl)C(O)C3NC(=O)C(NC(=O)C4NC(=O)C(NC2=O)c2cc(O)cc(c2)Oc2cc1ccc2O)c1ccc(O)c(c1)-c1c(O)cc(O)cc1C(C(=O)N1CCN(c2ccccn2)CC1)NC3=O (centres unmarked) [Compound 24] | – | 32 (≈ 23.8 µM) | > 128 | > 128 | 0.06 (≈ 0.0446 µM) | 0.12 (≈ 0.0893 µM) | 0.063 (≈ 0.0469 µM) | 0.12 (≈ 0.0893 µM) | 0.06 (≈ 0.0446 µM) | 0.06 (≈ 0.0446 µM) | > 300 | 0.72 | 5.75 | 7.4 | 6.6 |
| NC1C(=O)NC2Cc3ccc(c(Cl)c3)Oc3cc4cc(c3O)Oc3ccc(cc3Cl)C(O)C3NC(=O)C(NC(=O)C4NC(=O)C(NC2=O)c2cc(O)cc(c2)Oc2cc1ccc2O)c1ccc(O)c(c1)-c1c(O)cc(O)cc1C(C(=O)N1CCOCC1)NC3=O (centres unmarked) [Compound 25] | 7.8 | 16 (≈ 12.6 µM) | 64 (≈ 50.5 µM) | 64 (≈ 50.5 µM) | 0.12 (≈ 0.0946 µM) | 0.12 (≈ 0.0946 µM) | 0.016 (≈ 0.0126 µM) | 0.12 (≈ 0.0946 µM) | 0.12 (≈ 0.0946 µM) | 0.12 (≈ 0.0946 µM) | > 300 | 1.02 | 6.6 | – | – |
